This is an account of results in US20260027380A1, “TECHNIQUES FOR MAGNETIC NANOCLUSTER-BASED COMBINATION THERAPY” (William Marsh Rice University, priority 2022, published 2026).

This experiment concerns MC-38 cells. Kind of experiment: Detection of DNA damage (γ-H2AX staining). Format: cell-based, murine. To be noted: without AMF. As to the method: Hyperthermia treatment may induce lipid peroxidation, DNA damage, protein denaturation, and cell organelle disruption. In addition, carbon-centered free radicals generated from AAPH are highly reactive and can damage lipid, DNA, protein, and other biomolecules, leading to cell death. Thus, to understand the cell-killing mechanisms of IONC-AAPH under AMF, the effects of IONC-AAPH on various cellular components, including DNA, F-actin, mitochondria, gluthathione (GSH), and lipids, were evaluated. γ-H2AX is a sensitive marker of DNA damage and has been extensively used in research and clinical studies. It forms foci around the site of DNA double-strand break (DSB).
FIG. 7 depicts the quantification of γ-H2AX expression based on fluorescence intensity.
Detection of DNA damage: The DNA damage induced by IONC-AAPH treatment was detected by γ-H2AX staining. MC-38 cells were seeded in 4-compartment cell culture dishes and cultured overnight. Then the cells were treated with 300 μg Fe/mL of IONC-AAPH or IONC at 37° C. or under AMF for 90 min. Four hours after the treatment, the cells were fixed with 4% paraformaldehyde for 20 min, permeabilized with 0.2% Triton X-100 for 20 min and blocked with 3% bovine serum albumin (BSA) for 30 min at room temperature. […] The cells were imaged with a Nikon A1-Rsi confocal microscope and the fluorescence intensity of γ-H2AX was analyzed with ImageJ software.

Consider `CC(C)(N=NC(C)(C)C(=N)N)C(=N)N.Cl.Cl` [AAPH, 2,2′-azobis(2-amidinopropane) dihydrochloride], for which the “γ-H2AX foci (DNA damage)” value is reported as “low numbers of γ-H2AX foci”.
